Key:
[1] = tested on: tumors over-expressing IDO; details: several tumor models, monotherapy; cited from earlier work
SYK = target: T1, SYK (Homo sapiens, UniProt P43405); experiment: SYK enzyme assay (Flash plate assay / Caliper mobility shift assay); type: biochemical
T1 construct: purchased BPS Bioscience, CA, USA
Procedure, shortened: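 Flashplate: 2.5 nM SYK, 400 nM biotinylated peptide and 10 μM ATP with 33P-ATP, pH 7.5, 1 h at 30 °C, EDTA stop, radioactivity read, background with 0.1 μM staurosporine. Caliper: 90 min at 25 °C in HEPES pH 7.5, 1 mM MgCl2, 1 mM DTT, mobility-shift percent conversion of fluorescent peptide. IC50 from dose-response in both.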

GCN2 = GCN2 (Homo sapiens, UniProt Q9P2K8); experiment: GCN2 enzyme assay (TR-FRET Lanthascreen, GFP-eIF2alpha substrate); type: biochemical
Chain of GCN2 (Q9P2K8 whole entry): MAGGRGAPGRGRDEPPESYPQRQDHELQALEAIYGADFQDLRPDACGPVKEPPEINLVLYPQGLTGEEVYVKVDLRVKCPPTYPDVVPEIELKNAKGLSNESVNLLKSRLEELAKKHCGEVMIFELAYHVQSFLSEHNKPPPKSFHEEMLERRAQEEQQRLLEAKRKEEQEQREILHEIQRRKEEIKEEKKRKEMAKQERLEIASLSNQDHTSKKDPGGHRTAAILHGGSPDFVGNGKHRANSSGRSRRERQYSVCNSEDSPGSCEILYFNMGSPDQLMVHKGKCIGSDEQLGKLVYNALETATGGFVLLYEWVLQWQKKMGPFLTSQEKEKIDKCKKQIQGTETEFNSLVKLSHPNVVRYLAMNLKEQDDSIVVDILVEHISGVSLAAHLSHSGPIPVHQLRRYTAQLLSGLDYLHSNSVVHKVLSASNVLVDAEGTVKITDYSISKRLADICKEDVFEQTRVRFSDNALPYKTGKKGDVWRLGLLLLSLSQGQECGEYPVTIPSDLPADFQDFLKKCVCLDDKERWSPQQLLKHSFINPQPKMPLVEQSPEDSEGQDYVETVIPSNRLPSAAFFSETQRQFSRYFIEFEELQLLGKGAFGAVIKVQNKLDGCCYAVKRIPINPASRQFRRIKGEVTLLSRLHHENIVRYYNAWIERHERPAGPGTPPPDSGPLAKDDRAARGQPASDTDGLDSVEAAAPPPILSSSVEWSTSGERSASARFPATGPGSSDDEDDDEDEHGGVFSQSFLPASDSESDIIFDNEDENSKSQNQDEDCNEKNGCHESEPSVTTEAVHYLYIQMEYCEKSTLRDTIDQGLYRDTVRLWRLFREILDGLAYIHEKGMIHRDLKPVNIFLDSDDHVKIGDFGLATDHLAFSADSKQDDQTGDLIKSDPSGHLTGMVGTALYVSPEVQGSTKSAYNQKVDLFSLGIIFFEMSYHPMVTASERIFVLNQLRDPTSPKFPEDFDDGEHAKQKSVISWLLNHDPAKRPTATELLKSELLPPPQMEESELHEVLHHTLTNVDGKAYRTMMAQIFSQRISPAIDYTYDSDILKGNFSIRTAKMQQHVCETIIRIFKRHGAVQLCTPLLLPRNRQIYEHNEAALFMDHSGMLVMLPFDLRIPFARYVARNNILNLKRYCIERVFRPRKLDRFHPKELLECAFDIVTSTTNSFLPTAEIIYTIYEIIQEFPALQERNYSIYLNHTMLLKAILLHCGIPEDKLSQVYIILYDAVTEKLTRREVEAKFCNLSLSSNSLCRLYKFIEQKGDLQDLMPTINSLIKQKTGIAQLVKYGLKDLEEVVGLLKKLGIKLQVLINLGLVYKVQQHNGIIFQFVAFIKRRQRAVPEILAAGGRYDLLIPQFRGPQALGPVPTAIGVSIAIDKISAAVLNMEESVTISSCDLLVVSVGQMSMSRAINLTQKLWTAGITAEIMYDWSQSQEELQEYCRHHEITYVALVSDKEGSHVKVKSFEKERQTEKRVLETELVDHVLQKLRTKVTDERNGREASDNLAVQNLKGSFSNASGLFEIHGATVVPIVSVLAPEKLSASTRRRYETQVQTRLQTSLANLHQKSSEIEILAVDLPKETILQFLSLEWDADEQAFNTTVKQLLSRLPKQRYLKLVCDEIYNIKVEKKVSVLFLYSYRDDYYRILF
Procedure, shortened: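 GCN2 (30 nM) incubated at room temperature with 10 μM ATP and 80 nM GFP-eIF2alpha in 50 mM Hepes pH 7.0, 10 mM MgCl2, 5 mM MnCl2, 2 mM DTT, 0.1% BSA, 1% DMSO. Reaction stopped with EDTA; phospho-eIF2alpha detected by antibody TR-FRET, excitation 340 nm.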

RA = RA Phase II studies in humans; cited from earlier work
murine model of RA = details: cited from earlier work
3 LL lung carcinoma = details: mice; Rodriguez 2004; cited from earlier work
[2] = 100% corresponds to zero effect, −50% corresponds to IC50

| IC50 (SYK) [µM] | IC50 (GCN2) [µM] | Compound | further results |
| --- | --- | --- | --- |
| – | – | Cn1cc(C[C@H](N)C(=O)O)c2ccccc21 [Compound 1MT, 1 methyl-tryptophan] | tumor regression [1]: unable to elicit tumor regression |
| 1 to 5 | < 1 | COc1cc(Nc2nc3cncc(-c4cnn(CCC(C)C)c4)n3n2)ccc1N1CCN(C)CC1 [Compound A76, [3-methoxy-4-(4-methyl-piperazin-1-yl)-phenyl]-{5-[1-(3-methyl-butyl)-1H-pyrazol-4-yl]-[1,2,4]triazolo[1,5-a]pyrazin-2-yl}-amine] | – |
| 1 to 5 | < 1 | COc1cc(Nc2nc3cncc(-c4cnn(C5CCOCC5)c4)n3n2)ccc1N1CCN(C)CC1 [Compound A77, [3-methoxy-4-(4-methyl-piperazin-1-yl)-phenyl]-{5-[1-(tetrahydro-pyran-4-yl)-1H-pyrazol-4-yl]-[1,2,4]triazolo[1,5-a]pyrazin-2-yl}-amine] | – |
| 1 to 5 | < 1 | COc1cc(Nc2nc3cncc(-c4cnn(C)c4)n3n2)ccc1CN1CCOCC1 [Compound A78, (3-methoxy-4-morpholin-4-ylmethyl-phenyl)-[5-(1-methyl-1H-pyrazol-4-yl)-[1,2,4]triazolo[1,5-a]pyrazin-2-yl]-amine] | – |
| – | 5 to 10 | COc1cc(N2CCN(C)CC2)ccc1Nc1nc2cncc(-c3cnn(C)c3)n2n1 [Compound A79, [2-methoxy-4-(4-methyl-piperazin-1-yl)-phenyl]-[5-(1-methyl-1H-pyrazol-4-yl)-[1,2,4]triazolo[1,5-a]pyrazin-2-yl]-amine] | SYK (enzyme assay) % at 3 μM (SYK; [2]): −9@3% |
| – | < 1 | Cn1cc(-c2cncc3nc(Nc4cccc(N5CCOCC5)c4)nn23)cn1 [Compound A80, [5-(1-methyl-1H-pyrazol-4-yl)-[1,2,4]triazolo[1,5-a]pyrazin-2-yl]-(3-morpholin-4-yl-phenyl)-amine] | SYK (enzyme assay) % at 1 μM (SYK; at 1 μM, 100% corresponds to zero effect, −50% corresponds to IC50): −26@1% |
| 1 to 5 | < 1 | CC(=O)Nc1ccc(Nc2nc3cncc(-c4cnn(C)c4)n3n2)cc1C [Compound A81, N-{2-methyl-4-[5-(1-methyl-1H-pyrazol-4-yl)-[1,2,4]triazolo[1,5-a]pyrazin-2-ylamino]-phenyl}-acetamide] | – |
| 1 to 5 | < 1 | Cc1cc(Nc2nc3cncc(-c4cnn(C)c4)n3n2)ccc1NC(=O)C1CCNCC1 [Compound A82, piperidine-4-carboxylic acid {2-methyl-4-[5-(1-methyl-1H-pyrazol-4-yl)-[1,2,4]triazolo[1,5-a]pyrazin-2-ylamino]-phenyl}-amide] | – |
| 5 to 10 | < 1 | Cc1cc(Nc2nc3cncc(-c4cnn(C)c4)n3n2)ccc1NC(=O)C1CCOCC1 [Compound A83, tetrahydro-pyran-4-carboxylic acid {2-methyl-4-[5-(1-methyl-1H-pyrazol-4-yl)-[1,2,4]triazolo[1,5-a]pyrazin-2-ylamino]-phenyl}-amide] | – |
| 5 to 10 | < 1 | COc1cc(Nc2nc3cncc(-c4cnn(C)c4)n3n2)ccc1NC(=O)C1CCNCC1 [Compound A84, piperidine-4-carboxylic acid {2-methoxy-4-[5-(1-methyl-1H-pyrazol-4-yl)-[1,2,4]triazolo[1,5-a]pyrazin-2-ylamino]-phenyl}-amide] | – |
| 1 to 5 | < 1 | COc1cc(Nc2nc3cncc(-c4cnn(C)c4)n3n2)ccc1NC(C)=O [Compound A85, N-{2-methoxy-4-[5-(1-methyl-1H-pyrazol-4-yl)-[1,2,4]triazolo[1,5-a]pyrazin-2-ylamino]-phenyl}-acetamide] | – |
| < 1 | < 1 | COc1cc(Nc2nc3cncc(-c4cccc(O)c4)n3n2)ccc1N1CCN(C)CC1 [Compound A86, 3-{2-[3-methoxy-4-(4-methyl-piperazin-1-yl)-phenylamino]-[1,2,4]triazolo[1,5-a]pyrazin-5-yl}-phenol] | – |
| < 1 | < 1 | COc1cc(Nc2nc3cncc(-c4ccc(O)cc4)n3n2)ccc1N1CCN(C)CC1 [Compound A87, 4-{2-[3-methoxy-4-(4-methyl-piperazin-1-yl)-phenylamino]-[1,2,4]triazolo[1,5-a]pyrazin-5-yl}-phenol] | – |
| – | < 1 | CN1CCN(c2ncc(Nc3nc4cncc(-c5cnn(C)c5)n4n3)cn2)CC1 [Compound A88, [2-(4-methyl-piperazin-1-yl)-pyrimidin-5-yl]-[5-(1-methyl-1H-pyrazol-4-yl)-[1,2,4]triazolo[1,5-a]pyrazin-2-yl]-amine] | SYK (enzyme assay) % at 3 μM (SYK; [2]): −13@3% |
| 5 to 10 | < 1 | COc1cc(Nc2nc3cncc(-c4cnn(C)c4)n3n2)ccc1NC(=O)C1CCOCC1 [Compound A89, tetrahydro-pyran-4-carboxylic acid {2-methoxy-4-[5-(1-methyl-1H-pyrazol-4-yl)-[1,2,4]triazolo[1,5-a]pyrazin-2-ylamino]-phenyl}-amide] | – |
| 1 to 5 | < 1 | COc1cc(Nc2nc3cncc(-c4ccc(N5CCOCC5)cc4)n3n2)ccc1N1CCN(C)CC1 [Compound A91, [3-methoxy-4-(4-methyl-piperazin-1-yl)-phenyl]-[5-(4-morpholin-4-yl-phenyl)-[1,2,4]triazolo[1,5-a]pyrazin-2-yl]-amine] | – |
| < 1 | < 1 | COc1ccc(-c2cncc3nc(Nc4ccc(N5CCN(C)CC5)c(OC)c4)nn23)cc1 [Compound A92, [3-methoxy-4-(4-methyl-piperazin-1-yl)-phenyl]-[5-(4-methoxy-phenyl)-[1,2,4]triazolo[1,5-a]pyrazin-2-yl]-amine] | – |
| 1 to 5 | < 1 | COc1cc(Nc2nc3cncc(-c4ccc(NS(C)(=O)=O)cc4)n3n2)ccc1N1CCN(C)CC1 [Compound A93, N-(4-{2-[3-methoxy-4-(4-methyl-piperazin-1-yl)-phenylamino]-[1,2,4]triazolo[1,5-a]pyrazin-5-yl}-phenyl)-methanesulfonamide] | – |
| 1 to 5 | < 1 | CNS(=O)(=O)c1ccc(-c2cncc3nc(Nc4ccc(N5CCN(C)CC5)c(OC)c4)nn23)cc1 [Compound A94, 4-{2-[3-methoxy-4-(4-methyl-piperazin-1-yl)-phenylamino]-[1,2,4]triazolo[1,5-a]pyrazin-5-yl}-N-methyl-benzenesulfonamide] | – |
| 1 to 5 | < 1 | COc1cc(Nc2nc3cncc(-c4cccc(NS(C)(=O)=O)c4)n3n2)ccc1N1CCN(C)CC1 [Compound A95, N-(3-{2-[3-methoxy-4-(4-methyl-piperazin-1-yl)-phenylamino]-[1,2,4]triazolo[1,5-a]pyrazin-5-yl}-phenyl)-methanesulfonamide] | – |
| – | – | COc1cc(Nc2ncc(F)c(Nc3ccc4c(n3)NC(=O)C(C)(C)O4)n2)cc(OC)c1OC [Compound R406] | efficacy (ACR scores) (RA): efficacy (ACR scores improvement); tolerability (RA): good tolerability; bone erosion (murine model of RA): significantly reduced; clinical scores (murine model of RA): significant improvement; serum cytokine concentrations (murine model of RA): significantly reduced |
| – | – | N=C(NO)NCC[C@H](N)C(=O)O [N-hydroxy-nor-L-Arg] | growth of s.c. 3 LL lung carcinoma (3 LL lung carcinoma): blocks growth |
